Measured values taken from ChEMBL document CHEMBL3507680, “University of Dundee, Gates Library screen for HepG2 cell viability”.

Assay: Human HepG2 cell viability assay in 384 well format
Type: toxicity, cell-based
Design: dose 125 nL, time 70.5 hour; cytotoxicity at 70.5 h: concentration not given beside the values
Details: HepG2 cells, read-out: Inhibition

SMILES: Cc1nnc(N(CCC#N)CCC#N)s1
- cytotoxicity at 70.5 h: -5.52%

SMILES: O=C(NCc1cccnc1)c1cn(CCc2ccccc2)nn1
- cytotoxicity at 70.5 h: 14%

SMILES: O=C1CC(c2ccc(C(=O)O)cc2)c2ncn(-c3ccccc3Cl)c2N1 (stereo not drawn)
- cytotoxicity at 70.5 h: -12.6%

SMILES: COc1cccc(N2Cc3nc(=O)[nH]n3C2=O)c1
- cytotoxicity at 70.5 h: -16.5%

SMILES: CC1CCc2nc(O)c(C(=O)NCc3ccncc3)cc2C1 (stereo not drawn)
- cytotoxicity at 70.5 h: 5.88%

SMILES: CC1CCc2nc(O)c(C(=O)NCc3ccccc3F)cc2C1 (stereo not drawn)
- cytotoxicity at 70.5 h: 7.1%

SMILES: COc1ccc(CNC(=O)c2cc3c(nc2O)CCC(C)C3)cc1 (stereo not drawn)
- cytotoxicity at 70.5 h: -8.97%

SMILES: COC(=O)c1ccc(C2SCC(=O)Nc3ccsc32)cc1 (stereo not drawn)
- cytotoxicity at 70.5 h: -8.05%

SMILES: O=C1CSC(c2ccc(O)cc2)c2sccc2N1 (stereo not drawn)
- cytotoxicity at 70.5 h: 3%

SMILES: O=C1CC(c2cccs2)Cc2nc(O)c(C(=O)N3CCCC3)cc21 (stereo not drawn)
- cytotoxicity at 70.5 h: -4.55%

SMILES: CCOc1ccc(-n2ccc3nc(N4CCCC4)ncc3c2=O)cc1
- cytotoxicity at 70.5 h: -2.37%

SMILES: O=c1c2cnc(N3CCCCC3)nc2ccn1-c1ccccc1F
- cytotoxicity at 70.5 h: 8.21%

SMILES: Cc1ccccc1-n1ccc2nc(N3CCCC3)ncc2c1=O
- cytotoxicity at 70.5 h: -13.6%

SMILES: Cc1c(C)n(CC(O)CN2CCCCCC2)c2c(Cl)cccc12 (stereo not drawn)
- cytotoxicity at 70.5 h: 20.5%

SMILES: CN1N=C(C(=O)N2CCCCC2)S(=O)(=O)c2ccccc21
- cytotoxicity at 70.5 h: 1.74%

SMILES: CSc1nc2cc(C)n(CC(N)=O)c2c(=O)n1CC(C)C
- cytotoxicity at 70.5 h: 0.849%

SMILES: O=c1[nH]c2nc(NCC3CCCO3)ncc2c(=O)n1-c1ccc(F)cc1 (stereo not drawn)
- cytotoxicity at 70.5 h: 1.97%

SMILES: CCc1noc(-c2ccc(SCC(=O)O)nc2)n1
- cytotoxicity at 70.5 h: 13.8%

SMILES: COc1ccc(NC(=O)c2cnc(N(C)C3CCCCC3)nc2N)cc1
- cytotoxicity at 70.5 h: 2.82%

SMILES: COc1ccc(Cn2c(=O)n(C)c(=O)c3sccc32)cc1
- cytotoxicity at 70.5 h: 3.39%

SMILES: COCCc1noc(-c2ccc(=O)[nH]c2)n1
- cytotoxicity at 70.5 h: 2.52%

SMILES: Cc1cccc(N2CCN(c3ccn4c(=O)[nH]nc4n3)CC2)c1C
- cytotoxicity at 70.5 h: 3.43%

SMILES: COC(=O)c1sc2nc3c(c(C(F)(F)F)c2c1N)CN(C(C)=O)CC3
- cytotoxicity at 70.5 h: 5.62%

SMILES: CSc1ccc(C2CC(=O)Nc3c2c(=O)[nH]c2ncnn32)cc1 (stereo not drawn)
- cytotoxicity at 70.5 h: 6.12%

SMILES: O=C(O)c1ccc2[nH]cc(CN3CCCC3)c2c1
- cytotoxicity at 70.5 h: 6.43%

SMILES: COc1ccc(-c2cnc(NC(C)=O)[nH]2)cc1
- cytotoxicity at 70.5 h: 10.1%

SMILES: CC(=O)c1sc2nc3c(c(C(F)(F)F)c2c1N)CN(C(C)=O)CC3
- cytotoxicity at 70.5 h: 8.25%

SMILES: O=C1CC(C2CCCCC2)c2c(n(C3CCCC3)[nH]c2=O)N1 (stereo not drawn)
- cytotoxicity at 70.5 h: 2.99%

SMILES: CCOCCNS(=O)(=O)c1ccc2c3c1CCCN3C(=O)CO2
- cytotoxicity at 70.5 h: 33.6%

SMILES: O=C1COc2ccc(S(=O)(=O)NCC3CCCO3)c3c2N1CCC3 (stereo not drawn)
- cytotoxicity at 70.5 h: 1.71%

SMILES: O=C1COc2ccc(S(=O)(=O)NCc3ccccc3)c3c2N1CCC3
- cytotoxicity at 70.5 h: 4.09%

SMILES: Cc1cc(NCCO)nc(N2CCN(C)CC2)c1C#N
- cytotoxicity at 70.5 h: 1.33%

SMILES: Cc1nc(C#N)c(N2CCC(c3nc(-c4ccc(F)cc4)no3)CC2)o1
- cytotoxicity at 70.5 h: 28.5%

SMILES: CC(C)N1C(=O)CC(N2CCN(c3ccc(F)cc3)CC2)C1=O (stereo not drawn)
- cytotoxicity at 70.5 h: 6.65%

SMILES: CNC(=O)c1sccc1N(C)S(=O)(=O)c1ccc(Cl)cc1
- cytotoxicity at 70.5 h: 19.5%

SMILES: CCNC(=O)c1sccc1N(C)S(=O)(=O)c1ccc(Cl)cc1
- cytotoxicity at 70.5 h: 1.21%

SMILES: CN(C)CCNC(=O)c1sccc1N(C)S(=O)(=O)c1ccc(Cl)cc1
- cytotoxicity at 70.5 h: -17.4%

SMILES: O=C(c1cc(-n2cnnn2)ccc1Cl)N1CCN(c2ccccc2)CC1
- cytotoxicity at 70.5 h: -1.12%

SMILES: CC(C)n1ncc2c1NC(=O)CC2c1ccccc1Cl (stereo not drawn)
- cytotoxicity at 70.5 h: -6.71%

SMILES: Cn1ncc2c1NC(=O)CC2c1c(Cl)cccc1Cl (stereo not drawn)
- cytotoxicity at 70.5 h: -16.4%

SMILES: Cc1cccc(NC(=O)c2nn(C3CCS(=O)(=O)C3)c3c2CCCC3)n1 (stereo not drawn)
- cytotoxicity at 70.5 h: -27.2%

SMILES: Cn1ncc2c1NC(=O)CC2c1c(F)cccc1Cl (stereo not drawn)
- cytotoxicity at 70.5 h: -5.11%

SMILES: COc1cccc(C2SCC(=O)Nc3n[nH]cc32)c1OC(C)C (stereo not drawn)
- cytotoxicity at 70.5 h: -20.4%

SMILES: NC(=O)C1CCN(C(=O)c2cc(-n3cnnn3)ccc2Cl)CC1
- cytotoxicity at 70.5 h: -14.1%

SMILES: COC(=O)CNC(=O)c1c(-n2cnnn2)sc2c1CCCC2
- cytotoxicity at 70.5 h: -14.5%

SMILES: Oc1nc(N2CCCC2)nc2nccc(-c3ccccn3)c12
- cytotoxicity at 70.5 h: -22.4%

SMILES: CC(C)CCn1[nH]c(CNc2ccc(F)cc2)nc1=O
- cytotoxicity at 70.5 h: -10.3%

SMILES: Cn1ncc2c1NC(=O)CC2c1cc(Cl)ccc1F (stereo not drawn)
- cytotoxicity at 70.5 h: 47.5%

SMILES: Cn1ncc2c1NC(=O)CC2c1ccccc1Br (stereo not drawn)
- cytotoxicity at 70.5 h: -12.4%

SMILES: CC(C)CCn1nc(CNc2ccc(Br)cc2)nc1O
- cytotoxicity at 70.5 h: -17.8%

SMILES: CNc1nc2c(s1)C(c1ccccc1F)CC(=O)N2 (stereo not drawn)
- cytotoxicity at 70.5 h: 9.16%

SMILES: Cc1cc(O)c(OCC(=O)Nc2nc3c(s2)CCCC3)cn1
- cytotoxicity at 70.5 h: -22.4%

SMILES: Cc1cc(NC(=O)c2nn(C3CCS(=O)(=O)C3)c3c2CCCC3)no1 (stereo not drawn)
- cytotoxicity at 70.5 h: -24.1%

SMILES: CCc1c(C(=O)O)nnn1-c1cc(C)ccc1C
- cytotoxicity at 70.5 h: -2.96%

SMILES: CCOc1cc(=O)n2c(c1C(=O)OCc1cccc(C)c1)CCCC2
- cytotoxicity at 70.5 h: -11.3%

SMILES: CCn1nccc1CNC(=O)C1CC1
- cytotoxicity at 70.5 h: -10.1%

SMILES: Cc1nn(C)c2c(NCc3ccccc3F)nc(C3CC3)nc12
- cytotoxicity at 70.5 h: -5.5%

SMILES: Cc1nc(NCc2cccnc2)c2c(n1)c(C)nn2C
- cytotoxicity at 70.5 h: -11.5%

SMILES: Cc1ncc2c(n1)CCCC2NC(=O)c1ccncc1 (stereo not drawn)
- cytotoxicity at 70.5 h: 14.6%

SMILES: O=C1CCOC[C@]2(CN(Cc3ccccc3)C[C@H]2c2ccccc2F)N1
- cytotoxicity at 70.5 h: 1.5%

SMILES: c1cnc(N2CCCC(c3csc(Nc4cnccn4)n3)C2)nc1 (stereo not drawn)
- cytotoxicity at 70.5 h: 19.8%

SMILES: CCCC(=O)N1CCC(Nc2nc(O)cc(-c3ccsc3)n2)CC1
- cytotoxicity at 70.5 h: -3.98%

SMILES: O=C(C1CC1)N1CCC(Nc2nc(O)cc(-c3ccsc3)n2)CC1
- cytotoxicity at 70.5 h: -8.33%

SMILES: CNC(=O)[C@@H]1CN(C(=O)COC)C[C@H]1c1ccnc(N2CCCC2)n1
- cytotoxicity at 70.5 h: -5.21%

SMILES: COCCC(=O)NCc1ccc(-c2ccccc2C(=O)O)nc1
- cytotoxicity at 70.5 h: -3.04%

SMILES: CC(C)C(=O)NC(Cc1cc(N(C)C)nc(C2CC2)n1)c1ccccc1 (stereo not drawn)
- cytotoxicity at 70.5 h: 3.43%

SMILES: Cc1nc(CCC(N)=O)cc(C2CCCCN2S(C)(=O)=O)n1 (stereo not drawn)
- cytotoxicity at 70.5 h: -1.31%

SMILES: c1cc(C2CCN(c3cnccn3)CC2)ccn1
- cytotoxicity at 70.5 h: 17.3%

SMILES: Cc1nc(CN2CCCC2c2[nH]ncc2C(=O)N(C)C)cs1 (stereo not drawn)
- cytotoxicity at 70.5 h: -2.79%

SMILES: CN(C)c1ccc(C2CCN(c3cnccn3)CC2)nc1
- cytotoxicity at 70.5 h: 6.87%

SMILES: Cc1nc(C)c(CC(=O)N2CCC(c3ccn4nccc4n3)CC2)s1
- cytotoxicity at 70.5 h: -1.07%

SMILES: CC(C)N1CCCC(c2cc(C(F)(F)F)nc3nccn23)C1 (stereo not drawn)
- cytotoxicity at 70.5 h: -0.494%

SMILES: CN1CCc2nnc(C3CCCN3S(=O)(=O)c3ccc(F)cc3)n2CC1 (stereo not drawn)
- cytotoxicity at 70.5 h: -3.97%

SMILES: c1cnnc(N[C@@H]2CC[C@@H]3CN(Cc4ccc5[nH]ccc5c4)C[C@@H]32)c1
- cytotoxicity at 70.5 h: 2.98%

SMILES: Cc1cc(N2CCC(O)(CN(C)C(=O)CCN)C2)c2cnccc2n1 (stereo not drawn)
- cytotoxicity at 70.5 h: -4.6%

SMILES: Cc1cc(N2CCC(O)(CN(C)C(=O)CCCN)C2)c2cnccc2n1 (stereo not drawn)
- cytotoxicity at 70.5 h: -0.861%

SMILES: Cc1cn([C@H]2CCNC[C@]2(C)O)c(=O)[nH]c1=O
- cytotoxicity at 70.5 h: 4.8%

SMILES: CCN1CCCc2cc(CN3CCc4nc(C)[nH]c(=O)c4C3)ccc21
- cytotoxicity at 70.5 h: -0.248%

SMILES: CCN1CCCc2cc(CN3CCc4c(nc(C)[nH]c4=O)C3)ccc21
- cytotoxicity at 70.5 h: -3.71%

SMILES: Cc1cc(-c2ccc(=O)n(CCNC(=O)C3CCC3)n2)c(C)o1
- cytotoxicity at 70.5 h: 15.6%

SMILES: Cc1c(C)n(CC(O)CN2CCOCC2)c2c(Cl)cccc12 (stereo not drawn)
- cytotoxicity at 70.5 h: 11.2%

SMILES: Cc1c(C)n(CC(O)CN2CCN(CCO)CC2)c2c(Cl)cccc12 (stereo not drawn)
- cytotoxicity at 70.5 h: 10%

SMILES: CCNCc1ccc(OCc2ccc3c(c2)OCCO3)cc1
- cytotoxicity at 70.5 h: 22.5%
